Data taken from patent publication US9102648B1, “Bioavailable diacylhydrazine ligands for modulating the expression of exogenous genes via an ecdysone receptor complex” (Intrexon Corporation, priority 2003, dated 2015).
pEC50: −log10 of the molar value. Read-outs that look alike come from different tables or passages of the source.

Target: T1, Bombyx mori EcR (VP16 fusion, CVBE switch construct) (Bombyx mori, UniProt P49881)
T1 sequence (P49881 86-606): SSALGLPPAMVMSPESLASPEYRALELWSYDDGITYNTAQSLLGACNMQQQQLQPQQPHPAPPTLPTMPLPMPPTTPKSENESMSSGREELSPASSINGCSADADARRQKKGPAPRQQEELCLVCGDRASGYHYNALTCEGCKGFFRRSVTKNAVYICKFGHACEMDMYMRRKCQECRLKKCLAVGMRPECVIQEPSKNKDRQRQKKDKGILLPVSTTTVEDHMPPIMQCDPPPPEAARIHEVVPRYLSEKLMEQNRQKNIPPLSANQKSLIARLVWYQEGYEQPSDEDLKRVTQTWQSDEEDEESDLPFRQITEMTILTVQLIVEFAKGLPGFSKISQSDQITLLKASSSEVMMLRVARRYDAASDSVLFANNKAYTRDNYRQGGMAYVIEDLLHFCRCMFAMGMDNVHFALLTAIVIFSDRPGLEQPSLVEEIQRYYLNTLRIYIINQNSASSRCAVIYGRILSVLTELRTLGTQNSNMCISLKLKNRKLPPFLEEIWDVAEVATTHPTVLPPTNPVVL
T1 sequence (P19793 1-462 partner): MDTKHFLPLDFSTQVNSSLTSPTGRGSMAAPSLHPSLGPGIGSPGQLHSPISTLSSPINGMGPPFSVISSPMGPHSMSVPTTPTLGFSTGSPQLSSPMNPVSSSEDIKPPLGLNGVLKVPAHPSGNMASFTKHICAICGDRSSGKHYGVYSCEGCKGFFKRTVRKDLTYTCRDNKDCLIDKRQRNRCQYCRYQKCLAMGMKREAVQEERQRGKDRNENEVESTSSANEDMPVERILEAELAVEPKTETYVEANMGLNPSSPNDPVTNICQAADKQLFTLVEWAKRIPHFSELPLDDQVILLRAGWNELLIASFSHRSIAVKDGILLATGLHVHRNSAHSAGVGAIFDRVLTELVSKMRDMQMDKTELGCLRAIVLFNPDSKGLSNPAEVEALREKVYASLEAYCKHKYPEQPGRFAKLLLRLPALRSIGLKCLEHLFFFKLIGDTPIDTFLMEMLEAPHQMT
Experiment: Z3 Assay (HEK-293 cells with CVBE and 6XEcRE LacZ, β-galactosidase reporter)
Settings: for Fold Induction, Z3 Assay, 33 uM: 33 uM ligand; for Fold Induction, Z3 Assay, 33 uM / Fold Induction, Z3 Assay, 3.3 uM: ligand treated / DMSO treated cells; for Fold Induction, Z3 Assay, 3.3 uM: 3.3 uM ligand; for Z3 assay Rel Max FI: maximum fold induction at any concentration relative to that of GS-E ligand; for fold induction at 3.3 µM: HEK293, read-out: Fold Induction, Z3 Assay, 3.3 uM; for fold induction at 33 µM: HEK293, read-out: Fold Induction, Z3 Assay, 33 uM

[1] = read-out: Z3 assay EC50, HEK-293 Z3 cells, β-galactosidase reporter, average of two wells

Compound | Fold Induction, Z3 Assay, 33 uM (average of two wells) | pEC50 [1] | Fold Induction, Z3 Assay, 3.3 uM (average of two wells) | Z3 assay Rel Max FI (HEK-293 Z3 cells) | pEC50 | fold induction at 3.3 µM | fold induction at 33 µM
Cc1c(C(=O)NN(C(=O)c2cc(F)c(F)cc2F)C(C)(C)C)ccc2c1CCCO2 [RG-115229] | 1032 | 6.37 | – | – | – | – | –
CCc1c(C(=O)NN(C(=O)c2ccccc2)C(C)(C)C)ccc2c1OCOC2 [RG-115046] | 754 | 5.45 | – | – | – | – | –
CCc1c(C(=O)NN(C(=O)c2ccc(Cl)cc2F)C(C)(C)C)ccc2c1OCCO2 [RG-115514] | 658 | 7.25 | 383 | 0.970 | – | – | –
CCc1c(OC)cccc1C(=O)NN(C(=O)c1cc(Cl)ccc1[N+](=O)[O-])C(C)(C)C [RG-115257] | 691 | 6.69 | 297 | 0.885 | – | – | –
CCc1c(OC)cccc1C(=O)NN(C(=O)c1cc(C)cc(C)c1)C(C)(C)C=NNC(=O)C(N)=O [RG-115597, oxamic carbazide of 2-ethyl-3-methoxy-benzoic acid N′-(3,5-dimethyl-benzoyl)-N′-(1,1-dimethyl-2-oxo-ethyl)-hydrazide] | 942 | – | – | – | – | – | –
CCCC(N(NC(=O)c1cccc(OC)c1CC)C(=O)c1cc(C)cc(C)c1)C(C)(C)C (stereo not shown) [RG-115830] | 983 | 7.35 | 1604 | 1.020 | – | – | –
Cc1ccc([N+](=O)[O-])c(C(=O)N(NC(=O)c2ccc3c(c2C)OCCO3)C(C)(C)C)c1 [RG-115384] | – | 6.78 | 337 | 0.904 | – | – | –
COc1cc(C(=O)N(NC(=O)c2ccc3c(c2C)OCCO3)C(C)(C)C)cc(OC)c1O [RG-115009, 4-Hydroxy-3,5-dimethoxy-benzoic acid N-tert-butyl-N′-(5-methyl-2,3-dihydro-benzo[1,4]dioxine-6-carbonyl)-hydrazide] | – | – | – | 0.916 | 5.48 | 35 | 472
CCc1c(OC)cccc1C(=O)NN(C(=O)c1cc(C)cc(C)c1)C(C)(C)CO[Si](C)(C)C(C)(C)C [RG-115665, 2-ethyl-3-methoxy-benzoic acid N′-[2-(tert-butyl-dimethyl-silanyloxy)-1,1-dimethyl-ethyl]-N′-(3,5-dimethyl-benzoyl)-hydrazide] | – | – | – | 0.09 | 4.91 | 6 | 74
Cc1c(C(=O)NN(C(=O)c2ccc(F)cc2)C(C)(C)C)ccc2c1OCCO2 [RG-100425] | 592 | 7.00 | 1128 | 1.180 | – | – | –
Cc1c(C(=O)NN(C(=O)c2cc(F)cc(F)c2)C(C)(C)C)ccc2c1CCCO2 [RG-115207] | 508 | 6.59 | 354 | 0.923 | – | – | –
COc1cc(C(=O)N(NC(=O)c2ccc3c(c2C)OCCO3)C(C)(C)C#N)cc(OC)c1C [RG-115092, N-(5-methyl-1,4-benzodioxan-6-carbonyl)-N′-(2-cyano-2-propyl)-N′-(3,5-dimethoxy-4-methylbenzoyl)hydrazine] | – | – | – | 0.917 | 7.43 | 351 | 302
